Consider 1 compound from BindingDB's records for patent US20230348421 (Geneora Pharma (Shijiazhuang) Co., 2023).

The target of the data set is hERG (Potassium voltage-gated channel subfamily H member 2) (Homo sapiens, UniProt Q12809). The data set is described as follows: Electrophysiological Assay. Particulars: CHO cells stably expressing hERG potassium channels. Background: Block of hERG is tested as a sign of cardiac risk.
Chain of hERG (Potassium voltage-gated channel subfamily H member 2) (Q12809 whole entry): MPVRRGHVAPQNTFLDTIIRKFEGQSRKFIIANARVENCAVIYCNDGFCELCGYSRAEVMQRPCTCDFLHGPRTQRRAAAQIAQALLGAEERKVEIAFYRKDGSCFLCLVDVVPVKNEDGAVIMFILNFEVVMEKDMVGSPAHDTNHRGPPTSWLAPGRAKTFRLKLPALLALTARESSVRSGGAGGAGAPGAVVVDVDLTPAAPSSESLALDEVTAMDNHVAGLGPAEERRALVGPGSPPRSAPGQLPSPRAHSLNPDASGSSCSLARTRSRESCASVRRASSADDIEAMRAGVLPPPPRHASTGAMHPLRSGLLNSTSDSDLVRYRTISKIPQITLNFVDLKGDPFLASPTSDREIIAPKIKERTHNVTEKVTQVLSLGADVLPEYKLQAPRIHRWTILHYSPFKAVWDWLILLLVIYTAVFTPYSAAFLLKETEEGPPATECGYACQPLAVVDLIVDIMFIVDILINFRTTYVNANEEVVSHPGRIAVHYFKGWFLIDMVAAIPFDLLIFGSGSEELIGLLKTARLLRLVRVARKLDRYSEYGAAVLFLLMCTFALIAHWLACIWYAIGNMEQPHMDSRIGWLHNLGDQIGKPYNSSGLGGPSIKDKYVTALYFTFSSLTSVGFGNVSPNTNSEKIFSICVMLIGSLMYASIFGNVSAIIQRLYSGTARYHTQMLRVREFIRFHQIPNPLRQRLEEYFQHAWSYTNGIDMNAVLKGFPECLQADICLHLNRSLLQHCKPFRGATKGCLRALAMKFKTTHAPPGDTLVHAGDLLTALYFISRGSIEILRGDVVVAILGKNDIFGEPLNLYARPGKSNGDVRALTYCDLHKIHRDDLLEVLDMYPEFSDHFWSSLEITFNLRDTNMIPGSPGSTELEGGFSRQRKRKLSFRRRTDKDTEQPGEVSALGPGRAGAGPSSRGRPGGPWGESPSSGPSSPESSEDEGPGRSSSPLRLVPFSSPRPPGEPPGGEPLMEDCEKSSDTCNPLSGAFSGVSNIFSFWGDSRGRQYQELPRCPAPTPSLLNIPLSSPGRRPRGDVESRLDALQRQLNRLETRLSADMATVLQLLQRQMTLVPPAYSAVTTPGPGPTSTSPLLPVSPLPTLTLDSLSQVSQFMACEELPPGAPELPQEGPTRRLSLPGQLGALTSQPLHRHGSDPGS

Procedure: CHO (Chinese Hamster Ovary) cells stably expressing hERG potassium channels were taken, and hERG potassium channel currents were recorded at room temperature by means of a whole-cell patch-clamp technique. A glass microelectrode was formed by pulling a glass electrode blank (BF150-86-10, Sutter) with a glass microelectrode puller. The tip resistance was about 2-5 MΩ after perfusion of a pippette solution. The glass microelectrode could be connected to a patch clamp amplifier by inserting the glass microelectrode into an amplifier probe. Clamping voltages and data recording were controlled and recorded by a computer with pClamp 10 software, with a sampling frequency of 10 kHz and a filtering frequency of 2 kHz. After the whole-cell recording was obtained, the cells were clamped at −80 mV, and the step voltage evoking hERG potassium current (I hERG) was changed from −80 mV to +20 mV by giving a 2 s depolarization voltage and then repolarized to −50 mV for 1 s, and returned to −80 mV. Such voltage stimulation was given every 10 s, and the administration process was started after it was determined that the hERG potassium currents were stable (1 min). The compound at each test concentration was given at least 1 min, and at least 2 cells (n≥2) were tested for each concentration.

By IC50 is commonly meant the point on the concentration scale where inhibition reaches its midpoint. A high value points to weaker potency in that assay. `CN1CCC(N(Cc2ccc(F)cn2)C(=O)NCc2ccc3c(c2)CC(C(F)(F)F)O3)CC1` (stereo unspecified) [US20230348421, Compound 89] gave an IC50 of 2050 nM.
